# Data taken from US20240246905A1 (University of Leicester, priority 2021, published 2024).
# Read-outs that look alike come from different tables or passages of the source.
# Assays:
# [1] = test system: MSSA 476; experiment: Disc diffusion (Kirby-Bauer), zone of inhibition; format: cell-based, Staphylococcus aureus; settings: 500 μg/mL, '/' = no zone; for zone of inhibition at 500 µg/mL: Staphylococcus aureus
# Description: (§1) E. coli DH5α, P. aeruginosa PA01 and the 53 S. aureus strains were recovered from frozen (−80° C.) glycerol (15% v/v) stocks on Lysogeny agar (LA)—Gram negative and trypticase soy agar (TSA)—plates at 37° C. for 24 hours. Single colonies were placed in either 3 mL Lysogeny broth (LB)—Gram negative or trypticase soy broth (TSB)—Gram positive and incubated at 37° C., 250 rpm for 18 hours.
# (§2) The antibiotic activity was determined using a Kirby-Bauer method according to Clinical Standard Laboratory Institute (CSLI) Guidelines (2017). Briefly, 180 μL of a 1 in 200 dilution (in LB or TSB) of overnight cultures of selected Gram negative and Gram positive bacteria were applied to an agar plate containing the solid growth medium, Mueller-Hinton agar (MHA). Sterile discs, inoculated with 50 μL of antibiotic, were first added to the agar plate before the plates were incubated for 24 hours at 37° C. Following incubation, the zone of inhibition (if it existed) was recorded.
# [2] = test system: MRSA 252; experiment: Disc diffusion (Kirby-Bauer), zone of inhibition; format: cell-based, Staphylococcus aureus; settings: 500 μg/mL, '/' = no zone; for zone of inhibition at 500 µg/mL: Staphylococcus aureus
# Description: as §1, §2
# [3] = test system: MSSA 476; experiment: MIC, broth micro-dilution; format: cell-based, Staphylococcus aureus
# Description: as §1
# (§3) Antibiotic MIC's were determined by a broth micro-dilution method according to Clinical Standard Laboratory Institute (CSLI) Guidelines (2017). Briefly, 96-well microplates, each containing 195 μL of the 1:2 dilution antibiotic in TSB, were inoculated with 5 μL of overnight cultured bacteria, diluted to give a starting bacterial concentration of 5×10^5 CFU/mL. The optical density of each well inoculated was recorded every 12 minutes over an 18 hour period at 37° C. The data from this was plotted in OriginPro8 (OriginLab) and sigmoidal curves fitted using the dose response function. Fitted values for each curve were used to calculate the MIC.
# [4] = test system: MRSA 252; experiment: MIC, broth micro-dilution; format: cell-based, Staphylococcus aureus
# Description: as §1, §3
# [5] = test system: Galleria mellonella; experiment: Systemic toxicity, Galleria mellonella survival; settings: n = 10, injection of 500 μg/mL
# Description: Galleria mellonella wax worms purchased from www.livefoods.co.uk were inoculated with 10 μL of a series of dilutions of the antibiotics synthesised in-house. The antibiotic concentrations chosen for this study were the following: 1000 μg/mL, 500 μg/mL, 250 μg/mL, 125 μg/mL and 31.25 μg/mL. Each dilution was injected into 10 individual wax worms through their last pro-leg. The injected wax worms were stored at 25° C. for 5 days. The cytotoxicity was determined as the percentage survival rate of Galleria mellonella Wax worms after 5 days inoculation.
# [6] = test system: Staphylococcus aureus 15981; experiment: Disc diffusion (Kirby-Bauer), zone of inhibition; format: cell-based; settings: 500 μg/mL, '/' = no zone
# Description: as §1, §2
# [7] = test system: Escherichia coli DH5α; experiment: Disc diffusion (Kirby-Bauer), zone of inhibition; format: cell-based
# Description: as §1, §2
# [8] = test system: C. tropicalis ATCC 450; experiment: Anti-fungal MIC (CO-ADD); format: cell-based; settings: Candida tropicalis, ATCC450, read-out: MIC
# Description: (§4) Fungal strains were cultured for 3 days on Yeast Extract-Peptone Dextrose (YPD) agar at 30° C. A yeast suspension of 1×10^6 to 5×10^6 CFU/mL (as determined by OD530) was prepared from five colonies. […] All plates were covered and incubated at 35° C. for 36 hours without shaking. […] The absorbance was measured using a Biotek Multiflo Synergy HTX plate reader. In both cases, the percentage of growth inhibition was calculated for each well, using the negative control (media only) and positive control (fungi without inhibitors) on the same plate. […] Due to a higher variance in growth and inhibition, a lower threshold was applied to the data for C. neoformans. In addition, the maximal percentage of growth inhibition is reported as DMax, indicating any compounds with marginal activity.
# [9] = test system: C. neoformans H99; ATCC 208821; experiment: Anti-fungal MIC (CO-ADD); format: cell-based; settings: Cryptococcus neoformans, ATCC208821, read-out: MIC
# Description: as §4
# [10] = test system: C. glabrata ATCC 90030; experiment: Anti-fungal MIC (CO-ADD); format: cell-based; settings: Nakaseomyces glabratus, ATCC90030, read-out: MIC
# Description: as §4
# [11] = test system: C. deuterogattii ATCC 32609; experiment: Anti-fungal MIC (CO-ADD); format: cell-based; settings: read-out: MIC
# Description: as §4
# [12] = test system: C. albicans ATCC 90028; experiment: Anti-fungal MIC (CO-ADD); format: cell-based; settings: Candida albicans, ATCC90028, read-out: MIC
# Description: as §4
# [13] = test system: C. tropicalis ATCC 750; experiment: Anti-fungal MIC (CO-ADD); format: cell-based; settings: Candida tropicalis, ATCC750, read-out: MIC
# Description: as §4
# [14] = test system: MRSA 252, MSSA 476, S. aureus 15981, P. aeruginosa PA01 and E. coli DH5α; experiment: Disc diffusion primary screening, five strains (statements in words); format: cell-based; settings: 500 μg/mL
# Description: As such, the minimum inhibition concentration (MICs) of biologically active compounds were further assessed using the broth dilution method against the S. aureus strains; MRSA 252 and MSSA 476 (Table 1). The results of both assays enabled key structural elements and functional groups required for the compounds to retain their antibiotic activity to be identified.
# as §2
# [15] = test system: red blood cells; experiment: Hemolysis assay (CO-ADD); format: cell-based; settings: 32 μg/mL highest concentration tested
# From the text: A problem often encountered by emerging drugs is hemolysis, also known as drug-induced immune hemolytic anemia.
# [16] = test system: Pseudomonas aeruginosa PA01; experiment: Disc diffusion (Kirby-Bauer), zone of inhibition; format: cell-based; settings: 500 μg/mL, '/' = no zone
# Description: as §1, §2
# [17] = test system: HEK293 cells; experiment: Cytotoxicity assay, resazurin (CO-ADD); settings: HEK 293
# Description: The cytotoxicity studies were performed by CO-ADD (The Community for Open Antimicrobial Drug Discovery), funded by the Wellcome trust (UK) and the University of Queensland, Australia.^(28) In this study, the compounds were screened against a human embryonic kidney cell line, HEK293, at a set concentration of 32 μg/mL.
# DMEM supplemented with 10% FBS was used as growth media and the cells were incubated together with the compounds for 20 hours at 37° C. in 5% CO2.
# Cytotoxicity (or cell viability) was measured by fluorescence, excitation: 560/10 nm, emission: 590/10 nm (F560/590), after addition of 5 μL of 25 μg/mL Resazurin (2.3 μg/mL final concentration) and after incubation for further 3 h at 37° C. in 5% CO2. The fluorescence intensity was measured using a Tecan M1000 Pro monochromator plate reader, using automatic gain calculation CC50 (concentration at 50% cytotoxicity) were calculated by curve fitting the inhibition values vs. log(concentration) using sigmoidal dose-response function, with variable fitting values for bottom, top and slope. The curve fitting was implemented using Pipeline Pilot's dose-response component.
# [18] = Stability in the presence of glutathione (NMR); format: physicochemical; settings: up to 24 hours, DMSO-D6
# From the text: It is well known that compounds bearing an isocyanide group are usually highly reactive, capable of reacting with electrophiles, nucleophiles and radicals.^(30) As a result, it was important to identify any stability issues which might be encountered by the lead compounds, both in storage and in the presence of glutathione and cysteine. […] Another common feature of the lead compounds is the vinyl fragment. It was hypothesized that the presence of glutathione and cysteine found in eukaryotic cells could potentially interact with the electrophilic alkene group in the compounds, thus shutting down their antibiotic activity. To probe this potentially detrimental in vivo process, compound 39 was subjected to glutathione for up to 24 hours whilst compound 41 was added to cysteine for the same length of time.
# [19] = test system: Manduca sexta; experiment: Systemic toxicity, Manduca sexta survival and mass growth; format: in vivo; settings: 1% solution, by 48 hours
# From the text: The use of Galleria for evaluating systemic toxicity study provided a straightforward method for screening any immediate toxicity issues associated with the lead compounds. One problem encountered with this model is the complications of obtaining quantitative results since only live/dead outcomes can be recorded. As an alternative and quantitative approach for systemic toxicity, it was decided to use a new model using Manduca sexta as the subject, replacing the much smaller and difficult to handle, Galleria mellonella. The Manduca sexta assay allows for the mass change of the larvae to be measured over hours/days, thus giving information not only on survival but also on the organisms' fitness^(26) Promisingly, the 72 hour assay performed at concentrations of 1 mg/mL on the selected lead compounds gave identical results to those obtained using the Galleria infection model, indicating no apparent toxicity issues for the compounds. […] As a […] control, the Manduca were injected with a 1% solution of NaN3. […]
# […] The mass of each hornworm was measured before and up to 72 hours after injection at set 24 hour intervals. The systemic toxicity was determined as the percentage survival and mass growth relative to the positive control at the pre-determined set intervals.
# [20] = test system: MRSA 252; experiment: Resistance testing by serial passaging; format: cell-based, S. aureus; settings: 18 serial passage cycles
# Description: Next a serial passage study was undertaken in order to elucidate the speed at which target bacteria might either evolve resistance or select for persister cells within that population following exposure to compound 36.
# For resistance development by serial passaging, 5 μL of overnight cultured MRSA 252 cells were added to individual wells in a 96-well plate containing 195 μL of TSB supplemented with a range of antibiotic concentrations and incubated at 37° C. for 18 hours. Ofloxacin served as a control. Wells where bacterial growth was visible after 18 hours were plated on TSA plates and incubated at 37° C. for a further 18 hours. Single colonies obtained from the overnight cultured bacteria were then inoculated into fresh TSB medium, incubated at 37° C. for 18 hours before being used in the next cycle of the resistance testing. This process continued for 18 cycles.
# [21] = test system: methicillin resistant Staphylococcus aureus strains; format: cell-based; settings: clinically relevant methicillin resistant Staphylococcus aureus strains
# [22] = test system: insect phenol-oxidases; experiment: Inhibition of insect phenol-oxidases; format: biochemical
compound,measurement,setting,value
"[C-]#[N+]C=Cc1c[nH]c2ccccc12 [Compound 25, 3-(2-Isocyanovinyl)-1H-indole]",zone of inhibition at 500 µg/mL,[1]; MSSA,16 mm
same,zone of inhibition at 500 µg/mL,[2]; MRSA,18 mm
same,MIC,"[3]; Staphylococcus aureus, MSSA",166 µg/mL
same,MIC,[4],61 µg/mL
same,% survival after 5 days,[5],90%
same,zone of inhibition at 500 µg/mL,"[6]; Staphylococcus aureus, 15981, Staphylococcus aureus 15981",16 mm
"[C-]#[N+]C=Cc1c[nH]c2ccccc12 [Compound 26, 3-(2-Isocyanovinyl)-1H-indole]",Zone of inhibition,[1],20 mm
same,Zone of inhibition,[2],20 mm
same,MIC,[3],222 µg/mL
same,MIC,[4],20 µg/mL
same,% survival after 5 days,[5],100%
same,zone of inhibition at 500 µg/mL,[7]; Escherichia coli,20 mm
same,Zone of inhibition,[6]; Staphylococcus aureus 15981,22 mm
"[C-]#[N+]/C=C/c1ccccc1/C=C/c1ccccc1 [Compound 38, 1-((E)-2-Isocyanovinyl)-2-((E)-styryl)benzene]",zone of inhibition at 500 µg/mL,[1]; read-out: Zone of inhibition,30 mm
same,zone of inhibition at 500 µg/mL,[2]; read-out: Zone of inhibition,30 mm
same,MIC,"[3]; Staphylococcus aureus, MSSA, read-out: MIC",3 µg/mL
same,MIC,"[4]; Staphylococcus aureus, read-out: MIC",5 µg/mL
same,MIC,[8],2 µg/mL
same,MIC,[9],4 µg/mL
same,MIC,[10],> 32 µg/mL
same,MIC,[11],2 µg/mL
same,MIC,[12],2 to 4 µg/mL
same,MIC,[13],8 to 16 µg/mL
same,antibiotic activity in disc diffusion assays (in words),[14],retained antibiotic activity
same,Hemolytic activity (HC10),[15],>32 µg/mL
same,zone of inhibition at 500 µg/mL,"[7]; Escherichia coli DH5α, 500 μg/mL, '/' = no zone, read-out: Zone of inhibition",28 mm
same,zone of inhibition at 500 µg/mL,[16],26 mm
same,zone of inhibition at 500 µg/mL,"[6]; Staphylococcus aureus 15981, read-out: Zone of inhibition",28 mm
same,Concentration toxic to HEK 293 cells,[17],>32000 ng/mL
[C-]#[N+]/C=C/c1ccccc1/C=C/c1ccncc1 [Compound 39],Zone of inhibition,[1],32 mm
same,Zone of inhibition,[2],28 mm
same,MIC,[3],15 µg/mL
same,MIC,[4],12 µg/mL
same,structure after exposure to glutathione (NMR),[18],no change in the structure
same,antibiotic activity in disc diffusion assays (in words),[14],retaining its activity against the Gram negative P. aeruginosa and E. coli
same,Zone of inhibition,"[7]; Escherichia coli DH5α, 500 μg/mL, '/' = no zone",12 mm
same,Zone of inhibition,[16],20 mm
same,Zone of inhibition,[6]; Staphylococcus aureus 15981,26 mm
"[N-]=[N+]=[N-].[Na+] [Negative Control (NaN3), NaN3, reference compound]",survival of Manduca sexta,[19],had all died
same,% survival after 5 days,[5],0%
"CC1COc2c(N3CCN(C)CC3)c(F)cc3c(=O)c(C(=O)O)cn1c23 (centres unmarked) [ofloxacin, reference compound]",increase in MIC after serial passage,[20],greater than 10 fold
Byelyankacin,antibiotic activity (in words),[21],good antibiotic activity
same,inhibition of insect phenol-oxidases (in words),[22],inhibitor of insect phenol-oxidases
phenol vinyl isocyanide [(E)-4],antibiotic activity (in words),[21],good antibiotic activity
